For the first experiment, the target named is T1, NTCP (Homo sapiens, UniProt Q14973).
T1 sequence (Q14973 1-349): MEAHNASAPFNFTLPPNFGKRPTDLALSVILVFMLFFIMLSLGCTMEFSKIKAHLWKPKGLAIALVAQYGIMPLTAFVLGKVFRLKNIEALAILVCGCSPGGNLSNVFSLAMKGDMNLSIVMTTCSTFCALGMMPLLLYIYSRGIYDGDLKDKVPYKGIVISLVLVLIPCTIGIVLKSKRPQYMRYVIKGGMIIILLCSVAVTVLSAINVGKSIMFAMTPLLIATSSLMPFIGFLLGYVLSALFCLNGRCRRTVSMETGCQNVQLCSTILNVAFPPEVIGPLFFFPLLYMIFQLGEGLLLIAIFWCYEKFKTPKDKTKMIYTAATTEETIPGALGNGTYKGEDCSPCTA
In words: [3H]-TCA uptake assay (NTCP inhibition). It counts as cell-based. As to conditions: IC50, given as a range, marked * (asterisk not explained). An outline of the steps: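 Read-out is liquid scintillation counting of Triton X-100 lysates after 15 min, 37° C uptake of 1 μM [3H]-taurocholate in Na+ Ringer's buffer (145 mM Na). Beforehand, PTH and HepG2-NTCP cells had 24 h in PMM for NTCP induction and 2 h of compound or DMSO treatment.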
A word on the IC50: it is the concentration that gives 50% inhibition. The molecule `CCC1NC(=O)C(C2OC(Oc3cc(Cl)cc(OC)c3)CC2C)N(C)C(=O)C(C(C)C)N(C)C(=O)C(CC(C)C)N(C)C(=O)C(CC(C)C)N(C)C(=O)C(C)NC(=O)C(C)NC(=O)C(CC(C)C)N(C)C(=O)C(C(C)C)NC(=O)C(CC(C)C)N(C)C(=O)CN(C)C1=O` (centres unmarked) [Compound 59A-o] came in with an IC50 of 1000 to 100000 nM.
Molecule `CCC1NC(=O)C(C2OC(Oc3ccc4ccccc4c3)CC2C)N(C)C(=O)C(C(C)C)N(C)C(=O)C(CC(C)C)N(C)C(=O)C(CC(C)C)N(C)C(=O)C(C)NC(=O)C(C)NC(=O)C(CC(C)C)N(C)C(=O)C(C(C)C)NC(=O)C(CC(C)C)N(C)C(=O)CN(C)C1=O` (centres unmarked) [Compound 62-o] showed an IC50 of 1000 to 100000 nM.
As for `CCC1NC(=O)C(C2OC(Sc3ccc4ccccc4c3)CC2C)N(C)C(=O)C(C(C)C)N(C)C(=O)C(CC(C)C)N(C)C(=O)C(CC(C)C)N(C)C(=O)C(C)NC(=O)C(C)NC(=O)C(CC(C)C)N(C)C(=O)C(C(C)C)NC(=O)C(CC(C)C)N(C)C(=O)CN(C)C1=O` (centres unmarked) [Compound 62], the IC50 was in the range of 1000 to 100000 nM.
In turn, `CCC1NC(=O)C(C2OC(Oc3cc(Cl)cc(OCc4ccccc4)c3)CC2C)N(C)C(=O)C(C(C)C)N(C)C(=O)C(CC(C)C)N(C)C(=O)C(CC(C)C)N(C)C(=O)C(C)NC(=O)C(C)NC(=O)C(CC(C)C)N(C)C(=O)C(C(C)C)NC(=O)C(CC(C)C)N(C)C(=O)CN(C)C1=O` (centres unmarked) [Compound 63-o] came in with an IC50 of 1000 to 100000 nM.
The molecule `CCC1NC(=O)C(C2OC(Sc3cc(Cl)cc(OCc4ccccc4)c3)CC2C)N(C)C(=O)C(C(C)C)N(C)C(=O)C(CC(C)C)N(C)C(=O)C(CC(C)C)N(C)C(=O)C(C)NC(=O)C(C)NC(=O)C(CC(C)C)N(C)C(=O)C(C(C)C)NC(=O)C(CC(C)C)N(C)C(=O)CN(C)C1=O` (centres unmarked) [Compound 63] returned an IC50 of 1000 to 100000 nM.
`CCC1NC(=O)C(C2OC(Oc3cc(Cl)cc(OCC4CCOCC4)c3)CC2C)N(C)C(=O)C(C(C)C)N(C)C(=O)C(CC(C)C)N(C)C(=O)C(CC(C)C)N(C)C(=O)C(C)NC(=O)C(C)NC(=O)C(CC(C)C)N(C)C(=O)C(C(C)C)NC(=O)C(CC(C)C)N(C)C(=O)CN(C)C1=O` (centres unmarked) [Compound 67-o] displayed an IC50 of 1000 to 100000 nM.
On the same count and under the same terms, then `CCC1NC(=O)C(C2OC(Sc3cc(Cl)cc(OCC4CCOCC4)c3)CC2C)N(C)C(=O)C(C(C)C)N(C)C(=O)C(CC(C)C)N(C)C(=O)C(CC(C)C)N(C)C(=O)C(C)NC(=O)C(C)NC(=O)C(CC(C)C)N(C)C(=O)C(C(C)C)NC(=O)C(CC(C)C)N(C)C(=O)CN(C)C1=O` (centres unmarked) [Compound 67], with 1000 to 100000 nM; and `CCC1NC(=O)C(C2OC(Oc3cccc(N(C)Cc4ccccc4)c3)CC2C)N(C)C(=O)C(C(C)C)N(C)C(=O)C(CC(C)C)N(C)C(=O)C(CC(C)C)N(C)C(=O)C(C)NC(=O)C(C)NC(=O)C(CC(C)C)N(C)C(=O)C(C(C)C)NC(=O)C(CC(C)C)N(C)C(=O)CN(C)C1=O` (centres unmarked) [Compound 68-o], with 1000 to 100000 nM; and `CCC1NC(=O)C(C2OC(Sc3cccc(N(C)Cc4ccccc4)c3)CC2C)N(C)C(=O)C(C(C)C)N(C)C(=O)C(CC(C)C)N(C)C(=O)C(CC(C)C)N(C)C(=O)C(C)NC(=O)C(C)NC(=O)C(CC(C)C)N(C)C(=O)C(C(C)C)NC(=O)C(CC(C)C)N(C)C(=O)CN(C)C1=O` (centres unmarked) [Compound 68], with 1000 to 100000 nM.
The same measure, in the same setting: in the case of `CCC1NC(=O)C(C2OC(Oc3cccc(OCc4cccs4)c3)CC2C)N(C)C(=O)C(C(C)C)N(C)C(=O)C(CC(C)C)N(C)C(=O)C(CC(C)C)N(C)C(=O)C(C)NC(=O)C(C)NC(=O)C(CC(C)C)N(C)C(=O)C(C(C)C)NC(=O)C(CC(C)C)N(C)C(=O)CN(C)C1=O` (centres unmarked) [Compound 69-o] it was 1000 to 100000 nM; in that of `CCC1NC(=O)C(C2OC(Sc3cccc(OCc4cccs4)c3)CC2C)N(C)C(=O)C(C(C)C)N(C)C(=O)C(CC(C)C)N(C)C(=O)C(CC(C)C)N(C)C(=O)C(C)NC(=O)C(C)NC(=O)C(CC(C)C)N(C)C(=O)C(C(C)C)NC(=O)C(CC(C)C)N(C)C(=O)CN(C)C1=O` (centres unmarked) [Compound 69], 1000 to 100000 nM.
On to `CCC1NC(=O)C(C2OC(Oc3cccc(OCC4CCN(C)CC4)c3)CC2C)N(C)C(=O)C(C(C)C)N(C)C(=O)C(CC(C)C)N(C)C(=O)C(CC(C)C)N(C)C(=O)C(C)NC(=O)C(C)NC(=O)C(CC(C)C)N(C)C(=O)C(C(C)C)NC(=O)C(CC(C)C)N(C)C(=O)CN(C)C1=O` (centres unmarked) [Compound 72-o], for which the IC50 lay in the range of 1000 to 100000 nM.

Still in this experiment, the particulars now being: given as a range, marked * (asterisk not explained).
With `CCC1NC(=O)C(C2OC(Oc3cc(OC)cc(OCc4ccc(F)cc4)c3)CC2C)N(C)C(=O)C(C(C)C)N(C)C(=O)C(CC(C)C)N(C)C(=O)C(CC(C)C)N(C)C(=O)C(C)NC(=O)C(C)NC(=O)C(CC(C)C)N(C)C(=O)C(C(C)C)NC(=O)C(CC(C)C)N(C)C(=O)CN(C)C1=O` (centres unmarked) [Compound 60A-o], the IC50 is 1000 to 100000 nM.
The molecule `CCC1NC(=O)C(C2OC(Oc3cc(Cl)cc(OCc4ccc(F)cc4)c3)CC2C)N(C)C(=O)C(C(C)C)N(C)C(=O)C(CC(C)C)N(C)C(=O)C(CC(C)C)N(C)C(=O)C(C)NC(=O)C(C)NC(=O)C(CC(C)C)N(C)C(=O)C(C(C)C)NC(=O)C(CC(C)C)N(C)C(=O)CN(C)C1=O` (centres unmarked) [Compound 61A-o] displayed an IC50 of 1000 to 100000 nM.
The molecule `CCC1NC(=O)C(C2OC(Oc3ccc(OC)c(OCc4ccccc4)c3)CC2C)N(C)C(=O)C(C(C)C)N(C)C(=O)C(CC(C)C)N(C)C(=O)C(CC(C)C)N(C)C(=O)C(C)NC(=O)C(C)NC(=O)C(CC(C)C)N(C)C(=O)C(C(C)C)NC(=O)C(CC(C)C)N(C)C(=O)CN(C)C1=O` (centres unmarked) [Compound 64-o] gave an IC50 of 1000 to 100000 nM.
In turn, `CCC1NC(=O)C(C2OC(Sc3ccc(OC)c(OCc4ccccc4)c3)CC2C)N(C)C(=O)C(C(C)C)N(C)C(=O)C(CC(C)C)N(C)C(=O)C(CC(C)C)N(C)C(=O)C(C)NC(=O)C(C)NC(=O)C(CC(C)C)N(C)C(=O)C(C(C)C)NC(=O)C(CC(C)C)N(C)C(=O)CN(C)C1=O` (centres unmarked) [Compound 64] gave an IC50 of 1000 to 100000 nM.
On the same count and under the same terms, then `CCC1NC(=O)C(C2OC(Oc3cc(OC)cc(OCc4ccccc4)c3)CC2C)N(C)C(=O)C(C(C)C)N(C)C(=O)C(CC(C)C)N(C)C(=O)C(CC(C)C)N(C)C(=O)C(C)NC(=O)C(C)NC(=O)C(CC(C)C)N(C)C(=O)C(C(C)C)NC(=O)C(CC(C)C)N(C)C(=O)CN(C)C1=O` (centres unmarked) [Compound 65-o], with 1000 to 100000 nM; and `CCC1NC(=O)C(C2OC(Sc3cc(OC)cc(OCc4ccccc4)c3)CC2C)N(C)C(=O)C(C(C)C)N(C)C(=O)C(CC(C)C)N(C)C(=O)C(CC(C)C)N(C)C(=O)C(C)NC(=O)C(C)NC(=O)C(CC(C)C)N(C)C(=O)C(C(C)C)NC(=O)C(CC(C)C)N(C)C(=O)CN(C)C1=O` (centres unmarked) [Compound 65], with 1000 to 100000 nM.
Still for that read-out and setting: in the case of `CCC1NC(=O)C(C2OC(Oc3cc(OC)cc(OCC4CCOCC4)c3)CC2C)N(C)C(=O)C(C(C)C)N(C)C(=O)C(CC(C)C)N(C)C(=O)C(CC(C)C)N(C)C(=O)C(C)NC(=O)C(C)NC(=O)C(CC(C)C)N(C)C(=O)C(C(C)C)NC(=O)C(CC(C)C)N(C)C(=O)CN(C)C1=O` (centres unmarked) [Compound 66-o] it was 1000 to 100000 nM.
Consider `CCC1NC(=O)C(C2OC(Sc3cc(OC)cc(OCC4CCOCC4)c3)CC2C)N(C)C(=O)C(C(C)C)N(C)C(=O)C(CC(C)C)N(C)C(=O)C(CC(C)C)N(C)C(=O)C(C)NC(=O)C(C)NC(=O)C(CC(C)C)N(C)C(=O)C(C(C)C)NC(=O)C(CC(C)C)N(C)C(=O)CN(C)C1=O` (centres unmarked) [Compound 66], for which the IC50 was in the range of 1000 to 100000 nM.
Molecule `CCC1NC(=O)C(C2OC(Oc3cc(OC)cc(OCC4CCN(C)CC4)c3)CC2C)N(C)C(=O)C(C(C)C)N(C)C(=O)C(CC(C)C)N(C)C(=O)C(CC(C)C)N(C)C(=O)C(C)NC(=O)C(C)NC(=O)C(CC(C)C)N(C)C(=O)C(C(C)C)NC(=O)C(CC(C)C)N(C)C(=O)CN(C)C1=O` (centres unmarked) [Compound 70-o] gave an IC50 of 1000 to 100000 nM.
`CCC1NC(=O)C(C2OC(Sc3cc(OC)cc(OCC4CCN(C)CC4)c3)CC2C)N(C)C(=O)C(C(C)C)N(C)C(=O)C(CC(C)C)N(C)C(=O)C(CC(C)C)N(C)C(=O)C(C)NC(=O)C(C)NC(=O)C(CC(C)C)N(C)C(=O)C(C(C)C)NC(=O)C(CC(C)C)N(C)C(=O)CN(C)C1=O` (centres unmarked) [Compound 70] gave an IC50 of 1000 to 100000 nM.
`CCC1NC(=O)C(C2OC(Oc3cc(Cl)cc(OCC4CCN(C)CC4)c3)CC2C)N(C)C(=O)C(C(C)C)N(C)C(=O)C(CC(C)C)N(C)C(=O)C(CC(C)C)N(C)C(=O)C(C)NC(=O)C(C)NC(=O)C(CC(C)C)N(C)C(=O)C(C(C)C)NC(=O)C(CC(C)C)N(C)C(=O)CN(C)C1=O` (centres unmarked) [Compound 71-o] registered an IC50 of 1000 to 100000 nM.
On the same count and under the same terms, then `CCC1NC(=O)C(C2OC(Sc3cc(Cl)cc(OCC4CCN(C)CC4)c3)CC2C)N(C)C(=O)C(C(C)C)N(C)C(=O)C(CC(C)C)N(C)C(=O)C(CC(C)C)N(C)C(=O)C(C)NC(=O)C(C)NC(=O)C(CC(C)C)N(C)C(=O)C(C(C)C)NC(=O)C(CC(C)C)N(C)C(=O)CN(C)C1=O` (centres unmarked) [Compound 71], with 1000 to 100000 nM.

Staying with this experiment, now noted: given as a range; assay not given.
Turning to `CCC1NC(=O)C(C2OC(Sc3cc(OC)cc(OCc4ccc(F)cc4)c3)CC2C)N(C)C(=O)C(C(C)C)N(C)C(=O)C(CC(C)C)N(C)C(=O)C(CC(C)C)N(C)C(=O)C(C)NC(=O)C(C)NC(=O)C(CC(C)C)N(C)C(=O)C(C(C)C)NC(=O)C(CC(C)C)N(C)C(=O)CN(C)C1=O` [Compound 60A, [2-((2R,3R)-5-(3-(4-fluorobenzyloxy)-5-methoxyphenylthio)-3-methyltetrahydrofuran-2-yl)-2-(methylamino)acetic acid]^1-cyclosporin A], the IC50 lay within 1 to 1000 nM.

Staying with this experiment, now noted: given as a range; assay not given; read-out: IC50.
`CCC1NC(=O)C(C2OC(Sc3cc(Cl)cc(OCc4ccc(F)cc4)c3)CC2C)N(C)C(=O)C(C(C)C)N(C)C(=O)C(CC(C)C)N(C)C(=O)C(CC(C)C)N(C)C(=O)C(C)NC(=O)C(C)NC(=O)C(CC(C)C)N(C)C(=O)C(C(C)C)NC(=O)C(CC(C)C)N(C)C(=O)CN(C)C1=O` [Compound 61A, [2-((2R,3R)-5-(3-chloro-5-(4-fluorobenzyloxy)phenylthio)-3-methyltetrahydrofuran-2-yl)-2-(methylamino)acetic acid] 1-cyclosporin A]: the IC50 is 1 to 1000 nM.

The values above are taken from patent publication US10961231B2, “NTCP inhibitors” (National Institute of Biological Sciences, Beijing, priority 2018, dated 2021).
